Laboratory results from patent publication US20050282743A1, “Molecular interactions in cells” (Arbor Vita Corporation, priority 2001, published 2005).
Ends that are not written are not given here. Peptide text beside a SMILES is read from it. * marks the point of attachment. Biotin = O=C1N[C@H]2[C@H](CS[C@H]2CCCCC(=O)*)N1

How the values were obtained:
[1] = test system: PDZ protein (GST-PDZ fusion); assay: G' assay (10 uM PL peptide), results of TABLE 7 and TABLE 12; format: binding
Method in brief: (§1)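 Biotin-PL peptide (N-term label), 10 uM vs GST-PDZ; protein 5 ug/ml by default. A450 nm binned: 1 = 0-1, 2 = 1-2, 3 = 2-3, 4 = 3-4, 5 = >4 on >2 repeats, 0 = no binding.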

[2] = biological target: T1, PDZ protein (GST-PDZ fusion) (Homo sapiens, UniProt Q5TCQ9); assay: as above; format: binding
T1 construct: made in house; host or cells: E. coli (DH5alpha, BL21 or JM109)
T1 sequence (Q5TCQ9 1-1481): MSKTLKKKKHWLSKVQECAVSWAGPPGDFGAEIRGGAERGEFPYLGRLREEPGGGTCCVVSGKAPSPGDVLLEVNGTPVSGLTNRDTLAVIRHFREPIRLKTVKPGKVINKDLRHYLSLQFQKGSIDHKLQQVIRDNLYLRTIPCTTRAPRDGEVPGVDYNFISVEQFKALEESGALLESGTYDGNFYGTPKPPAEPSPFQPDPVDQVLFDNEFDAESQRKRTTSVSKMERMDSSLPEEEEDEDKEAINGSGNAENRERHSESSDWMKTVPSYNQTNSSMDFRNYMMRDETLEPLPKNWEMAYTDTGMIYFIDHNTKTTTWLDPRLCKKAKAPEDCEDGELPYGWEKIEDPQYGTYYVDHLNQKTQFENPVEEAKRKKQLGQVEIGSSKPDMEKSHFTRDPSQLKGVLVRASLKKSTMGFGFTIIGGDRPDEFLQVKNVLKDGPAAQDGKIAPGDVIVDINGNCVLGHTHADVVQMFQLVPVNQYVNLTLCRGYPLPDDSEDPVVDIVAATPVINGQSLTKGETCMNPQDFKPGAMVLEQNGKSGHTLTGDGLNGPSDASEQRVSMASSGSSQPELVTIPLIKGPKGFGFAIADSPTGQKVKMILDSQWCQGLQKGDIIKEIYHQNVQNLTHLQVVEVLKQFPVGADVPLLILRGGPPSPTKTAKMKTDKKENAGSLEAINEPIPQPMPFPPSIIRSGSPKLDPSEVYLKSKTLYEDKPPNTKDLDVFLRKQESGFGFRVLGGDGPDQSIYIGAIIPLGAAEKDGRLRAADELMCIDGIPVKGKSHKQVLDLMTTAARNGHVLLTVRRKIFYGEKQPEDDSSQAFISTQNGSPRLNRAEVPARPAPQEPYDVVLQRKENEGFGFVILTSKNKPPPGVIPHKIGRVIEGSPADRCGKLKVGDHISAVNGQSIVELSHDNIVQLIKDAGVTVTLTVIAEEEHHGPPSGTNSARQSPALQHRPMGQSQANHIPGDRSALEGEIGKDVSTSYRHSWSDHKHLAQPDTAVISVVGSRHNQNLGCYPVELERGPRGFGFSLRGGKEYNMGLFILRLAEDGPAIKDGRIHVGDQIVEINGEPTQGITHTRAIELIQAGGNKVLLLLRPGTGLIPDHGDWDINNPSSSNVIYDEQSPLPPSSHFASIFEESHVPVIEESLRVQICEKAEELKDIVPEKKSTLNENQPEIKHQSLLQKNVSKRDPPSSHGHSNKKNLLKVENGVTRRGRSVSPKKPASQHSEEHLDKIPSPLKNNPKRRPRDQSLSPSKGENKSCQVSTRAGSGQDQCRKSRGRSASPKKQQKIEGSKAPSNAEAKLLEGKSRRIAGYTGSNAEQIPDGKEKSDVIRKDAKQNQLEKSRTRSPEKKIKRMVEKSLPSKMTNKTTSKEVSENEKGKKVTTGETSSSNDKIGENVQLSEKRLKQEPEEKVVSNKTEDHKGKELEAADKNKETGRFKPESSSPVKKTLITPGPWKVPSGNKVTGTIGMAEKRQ
Method in brief: as §1

[3] = PDZ HEMBA 1003117, PDZ Domain 1

| Compound | Classification ([1]; PDZ BAI-1, PDZ Domain 2) | Classification ([1]; PDZ BAI-1, PDZ Domain 6) | Classification ([2]; PDZ KIAA1634, PDZ Domain 1) | Classification ([2]; PDZ KIAA1634, PDZ Domain 2) | Classification ([1]; PDZ SHANK, PDZ Domain 1) | Classification ([2]; PDZ KIAA1634, PDZ Domain 5) | further results |
| --- | --- | --- | --- | --- | --- | --- | --- |
| RNIEEVYVGGKQVVPFSSSV (Biotin-RNIEEVYVGGKQVVPFSSSV) [Nedasin (s-form)] | 1 (A450 nm 0-1) | 1 (A450 nm 0-1) | 1 (A450 nm 0-1) | – | – | – | – |
| CC[C@H](C)[C@H](NC(=O)[C@H](CCC(=O)O)NC(=O)[C@H](CC(N)=O)NC(=O)[C@H](CCCNC(=N)N)NC(=O)[C@H](Cc1ccccc1)NC(=O)[C@H](CC(N)=O)NC(=O)[C@H](CO)NC(=O)[C@H](CC(N)=O)NC(=O)[C@H](CCC(=O)O)NC(=O)[C@H](CO)NC(=O)[C@H](CC(=O)O)NC(=O)[C@H](CO)NC(=O)[C@@H](NC(=O)[C@@H](NC(=O)[C@H](CC(=O)O)NC(=O)[C@H](CCCCN)NC(=O)CCCC[C@@H]1SC[C@@H]2NC(=O)N[C@@H]21)[C@@H](C)CC)[C@@H](C)O)C(=O)N[C@@H](CCC(N)=O)C(=O)N[C@@H](CO)C(=O)N[C@@H](CC(C)C)C(=O)N[C@H](C(=O)O)C(C)C [CD95] (Biotin-KDITSDSENSNFRNEIQSLV-OH; C-terminus assumed) | – | – | 1 (A450 nm 0-1) | 1 (A450 nm 0-1) | – | – | Classification ([1]; PDZ BAI-1, PDZ Domain 5): 3 (A450 nm 2-3); Classification ([2]; PDZ KIAA1634, PDZ Domain 4): 1 (A450 nm 0-1) |
| CC(C)C[C@H](NC(=O)CNC(=O)[C@@H](NC(=O)[C@H](CO)NC(=O)[C@H](CC(N)=O)NC(=O)[C@H](Cc1ccccc1)NC(=O)CNC(=O)[C@H](C)NC(=O)[C@H](C)NC(=O)[C@H](Cc1ccccc1)NC(=O)[C@@H](NC(=O)CCCC[C@@H]1SC[C@@H]2NC(=O)N[C@@H]21)[C@@H](C)O)[C@@H](C)O)C(=O)N1CCC[C@H]1C(=O)N[C@@H](Cc1c[nH]cn1)C(=O)N[C@@H](CO)C(=O)N[C@H](C(=O)N[C@H](C(=O)N[C@@H](CCCNC(=N)N)C(=O)N[C@H](C(=O)O)C(C)C)[C@@H](C)O)[C@@H](C)O [Neuroligin] (Biotin-TFAAGFNSTGLPHSTTRV-OH; C-terminus assumed) | – | – | 4 (A450 nm 3-4) | 2 (A450 nm 1-2) | 2 (A450 nm 1-2) | – | – |
| CC[C@H](C)[C@H](NC(=O)[C@H](Cc1c[nH]cn1)NC(=O)[C@H](C)NC(=O)[C@H](C)NC(=O)[C@H](CO)NC(=O)[C@@H]1CCCN1C(=O)[C@H](CCCNC(=N)N)NC(=O)[C@H](CC(=O)O)NC(=O)[C@H](CCCCN)NC(=O)[C@@H]1CCCN1C(=O)[C@H](CC(=O)O)NC(=O)[C@H](CCC(=O)O)NC(=O)CCCC[C@@H]1SC[C@@H]2NC(=O)N[C@@H]21)C(=O)N[C@H](C(=O)N[C@@H](CCC(=O)O)C(=O)N[C@@H](C)C(=O)N[C@@H](CC(C)C)C(=O)N[C@@H](CCC(=O)O)C(=O)N[C@H](C(=O)N[C@@H](CC(=O)O)C(=O)N[C@H](C(=O)O)C(C)C)[C@@H](C)O)C(C)C [PDZ-binding kinase (PBK)] (Biotin-EDPKDRPSAAHIVEALETDV-OH; C-terminus assumed) | – | – | – | 3 (A450 nm 2-3) | – | – | Classification ([1]; PDZ BAI-1, PDZ Domain 3): 1 (A450 nm 0-1) |
| CC(C)C[C@H](NC(=O)[C@H](C)NC(=O)[C@@H](NC(=O)[C@H](CCC(=O)O)NC(=O)[C@H](CCCNC(=N)N)NC(=O)[C@H](CCCNC(=N)N)NC(=O)CNC(=O)[C@H](CCC(N)=O)NC(=O)[C@H](CC(C)C)NC(=O)[C@H](CCCNC(=N)N)NC(=O)CNC(=O)CNC(=O)[C@H](CCCNC(=N)N)NC(=O)[C@H](C)NC(=O)[C@H](CO)NC(=O)[C@H](CCCNC(=N)N)NC(=O)CNC(=O)CNC(=O)[C@H](C)NC(=O)[C@H](C)NC(=O)CCCC[C@@H]1SC[C@@H]2NC(=O)N[C@@H]21)[C@@H](C)O)C(=O)O [HPV E6 33 (modified)] (Biotin-AAGGRSARGGRLQGRRETAL-OH; C-terminus assumed) | 5 (A450 nm of 4 more than 2× repeated) | 1 (A450 nm 0-1) | 5 (A450 nm of 4 more than 2× repeated) | – | 4 (A450 nm 3-4) | – | Classification ([1]; PDZ BAI-1, PDZ Domain 5): 1 (A450 nm 0-1); Classification ([1]; PDZ FLJ 00011, PDZ Domain 1): 1 (A450 nm 0-1) |
| TQGFPGPATWRRISSLESEV | 4 (A450 nm 3-4) | 2 (A450 nm 1-2) | 5 (A450 nm of 4 more than 2× repeated) | 3 (A450 nm 2-3) | – | 1 (A450 nm 0-1) | Classification ([1]; PDZ BAI-1, PDZ Domain 3): 1 (A450 nm 0-1); Classification ([1]; PDZ BAI-1, PDZ Domain 4): 3 (A450 nm 2-3); Classification ([1]; PDZ BAI-1, PDZ Domain 5): 4 (A450 nm 3-4); Classification ([1]; PDZ FLJ00011 (also printed FLJ 00011), PDZ Domain 1): 2 (A450 nm 1-2); Classification ([1]; PDZ FLJ 11215, PDZ Domain 1): 1 (A450 nm 0-1); Classification ([2]; PDZ KIAA1634, PDZ Domain 4): 1 (A450 nm 0-1) |
| ELLQFCRTPNPALKNGQYWV (Biotin-ELLQFCRTPNPALKNGQYWV) | 2 (A450 nm 1-2) | 4 (A450 nm 3-4) | 5 (A450 nm of 4 more than 2× repeated) | – | – | 2 (A450 nm 1-2) | Classification [1, 3]: 5 (A450 nm of 4 more than 2× repeated) |
| VHDAESSDEDGYDWGPATDL (Biotin-VHDAESSDEDGYDWGPATDL) [zona occludens 3 (ZO-3)] | – | 2 (A450 nm 1-2) | – | – | 1 (A450 nm 0-1) | 1 (A450 nm 0-1) | Classification ([1]; PDZ Novel PDZ, PDZ Domain 1): 1 (A450 nm 0-1) |
| CC(C)C[C@H](NC(=O)[C@H](CC(=O)O)NC(=O)[C@H](CO)NC(=O)[C@H](CCC(=O)O)NC(=O)CNC(=O)[C@H](Cc1ccc(O)cc1)NC(=O)[C@H](CC(C)C)NC(=O)[C@H](C)NC(=O)[C@H](CO)NC(=O)[C@H](CO)NC(=O)[C@H](Cc1ccccc1)NC(=O)[C@H](C)NC(=O)[C@H](C)NC(=O)[C@H](Cc1ccc(O)cc1)NC(=O)[C@H](CC(=O)O)NC(=O)[C@H](CC(C)C)NC(=O)[C@H](C)NC(=O)CNC(=O)[C@@H]1CCCN1C(=O)[C@@H](NC(=O)CCCC[C@@H]1SC[C@@H]2NC(=O)N[C@@H]21)C(C)C)C(=O)O [a-actinin 2] (Biotin-VPGALDYAAFSSALYGESDL-OH; C-terminus assumed) | 1 (A450 nm 0-1) | 5 (A450 nm of 4 more than 2× repeated) | – | – | 1 (A450 nm 0-1) | 5 (A450 nm of 4 more than 2× repeated) | Classification ([1]; PDZ LIM Protein, PDZ Domain 1): 4 (A450 nm 3-4); Classification ([1]; PDZ Novel PDZ, PDZ Domain 1): 2 (A450 nm 1-2) |
| CC[C@H](C)[C@H](NC(=O)[C@H](CCC(=O)O)NC(=O)[C@H](CO)NC(=O)[C@H](CCC(=O)O)NC(=O)[C@H](CCCNC(=N)N)NC(=O)[C@H](CCCNC(=N)N)NC(=O)[C@H](CC(C)C)NC(=O)[C@@H]1CCCN1C(=O)[C@H](CCCNC(=N)N)NC(=O)[C@@H]1CCCN1C(=O)[C@H](CCC(=O)O)NC(=O)[C@H](CC(C)C)NC(=O)[C@@H]1CCCN1C(=O)[C@@H](NC(=O)[C@H](CO)NC(=O)[C@H](C)NC(=O)[C@H](CCC(N)=O)NC(=O)[C@H](CC(N)=O)NC(=O)[C@H](Cc1c[nH]cn1)NC(=O)[C@H](CC(C)C)NC(=O)CCCC[C@@H]1SC[C@@H]2NC(=O)N[C@@H]21)C(C)C)C(=O)O [Kir2.1 (inwardly rect. K+ channel)] (Biotin-LHNQASVPLEPRPLRRESEI-OH; C-terminus assumed) | – | – | 1 (A450 nm 0-1) | – | – | – | – |
| GGGGGSGGGGGSGIESVKI [GLUR2 (glutamate receptor 2-modified)] | – | – | 4 (A450 nm 3-4) | – | – | – | – |
| CKR5_HUMAN (ERASSVYTRSTGEQEISVGL) | – | – | 1 (A450 nm 0-1) | – | – | – | – |
| A2AA_HUMAN (modified) (Biotin-HDFRRAFKKILARGDRKRIV; not fully specified) | – | 3 (A450 nm 2-3) | – | – | – | – | Classification [1, 3]: 1 (A450 nm 0-1); Classification ([1]; PDZ Unnamed Protein, PDZ Domain 2): 1 (A450 nm 0-1) |
